{
  "source": "patent US20240335462A1",
  "about": "“SULFUR/PHOSPHORUS-CONTAINING ARYL COMPOUND AND APPLICATION THEREOF” (MEDSHINE DISCOVERY INC., priority 2021, published 2024)",
  "type_in_all_cases": "cell-based",
  "key": {"[1]": {"tested_on": "TYK2 signaling pathway (IFN-α/pSTAT5)", "assay": "IFN-α-induced STAT phosphorylation in human whole blood", "method": "(§1) The purpose of this experiment was to detect the inhibitory effect of the compound on the JAK-STAT signaling pathway activated by cytokines in human whole blood or platelet-rich plasma. Fresh human whole blood/platelets were placed in a 96-well plate. The test compound was added and incubated for 1 hour, followed by stimulation with various cytokines. The corresponding STAT phosphorylation levels in different cell populations were analyzed using flow cytometer by means of surface antibody staining and intracellular phosphorylated antibody staining. The experiments using the cytokines IFN-α, […] as stimulants were conducted in human whole blood, whereas the experiment using the cytokine TPO as a stimulant was conducted in platelet-rich plasma.\n(§2) • a) Fresh blood from volunteers was collected using EDTA anticoagulant tubes. • b) 90 μL per well of whole blood was rapidly seeded into a 96-well plate and incubated in a cell culture incubator for 15 minutes. […] The plate was centrifuged at 500×g for 8 minutes, and the supernatant was discarded. • g) The cell pellet was washed once with pre-cooled PBS. • h) After discarding the supernatant, anti-human CD3 antibody was added thereto, followed by incubation at room temperature for 40 minutes. • i) The plate was centrifuged at 500×g for 8 minutes, then the supernatant was discarded, and the cells were washed twice with 200 μL of pre-cooled PBS. • j) The cells were resuspended in 200 μL of pre-cooled Perm Buffer III per well and permeabilized on ice for 60 minutes. • k) The plate was centrifuged at 600×g for 8 minutes, then the supernatant was discarded, and the cells were washed twice with pre-cooled PBS. • l) Intracellular staining with anti-pSTAT5 antibody was carried out, followed by incubation at room temperature for 60 minutes. • m) The cells were centrifuged at 600×g for 8 minutes, washed twice with PBS, resuspended in 200 μL of PBS, and detected using the CytoFlex S flow cytometer. • n) Data analysis was conducted using FlowJo and GraphPad Prism 8 software.\n(§3) Data were analyzed using FlowJo software. […]"}, "[2]": {"tested_on": "JAK1/3 signaling pathway (IL-2/pSTAT5)", "assay": "IL-2-induced STAT phosphorylation in human whole blood", "method": "as §1, §2, §3"}, "[3]": {"tested_on": "JAK2/2 signaling pathway (GM-CSF/pSTAT5)", "assay": "GM-CSF-stimulated pSTAT5 in human PBMC (flow cytometry)", "settings": "CD33-positive cells", "method": "(§4) The purpose of this experiment was to detect the inhibitory effect of the compounds on cytokine-activated JAK-STAT signaling pathways in human peripheral blood mononuclear cells (PBMC).\n(§5) • a) PBMCs frozen in liquid nitrogen were thawed in a 37° C. water bath, and culture medium was added. The mixture was then centrifuged at 320 g for 3 minutes. • b) Cells were resuspended in culture medium, counted, and the cell concentration was adjusted to 5×10^5 cells/mL with culture medium. Subsequently, the cell suspension was inoculated into […] 96-well round-bottom plates, with 200 μL per well. The plates were incubated at 37° C. with 5% CO2 for 90 minutes. • c) Different concentrations of the test compound (starting at 2 μM, 5-fold serial dilution, a total of 8 concentrations) were added, followed by incubation at 37° C. with 5% CO2 for 30 minutes. • d) IL-6 (final concentration at 20 ng/mL) was added to the first round-bottom plate and incubated at 37° C. with 5% CO2 for 15 minutes. • e) IFNα (final concentration at 1000 U/mL) was added to the second round-bottom plate and incubated at 37° C. with 5% CO2 for 15 minutes. • f) IL-2 (final concentration at 4 ng/mL) was added to the third round-bottom plate and incubated at 37° C. with 5% CO2 for 15 minutes. • g) GM-CSF (final concentration at […]) was added to the fourth round-bottom plate and incubated at 37° C. with 5% CO2 for 15 minutes. • h) Cells were centrifuged at 320 g for 3 minutes, and each well was washed once with 200 μL of staining solution. • i) 50 μL of staining solution containing human CD33 antibody was added to each well of the GM-CSF-stimulated culture plate, and 50 μL of staining solution containing CD4 antibody was added to the remaining three culture plates. The staining was performed at 4° C. for 30 minutes. The cells were washed twice with the staining solution. • j) 100 μL of fixation buffer was added to each well, and the cells were fixed at 4° C. for 15 minutes. The cells were washed once with the staining solution. • k) 100 μL of permeabilization buffer was added to each well, and the cells were permeabilized at 4° C. for 20 minutes. The cells were washed twice with the staining solution. • l) 50 μL of staining solution containing human pSTAT1 antibody was added to each well of the IL-6 and IFN-α-stimulated culture plates, and 50 μL of staining solution containing human pSTAT5 antibody was added to each well of the IL-2 and GM-CSF-stimulated culture plates. The staining was performed at room temperature for 15 minutes. The cells were washed twice with the staining solution. • m) The cells were resuspended in 150 μL of staining solution. • n) The fluorescence intensity of pSTAT1 (stimulated by IL-6 and IFN-α) or pSTAT5 (stimulated by IL-2) in CD4-positive cells was detected using flow cytometer. The fluorescence intensity of pSTAT5 (stimulated by GM-CSF) in CD33-positive cells was also detected.\n(§6) Data analysis was performed using Flowjo software to determine the IC50 of the compounds."}, "[4]": {"tested_on": "JAK1/3 signaling pathway (IL-2/pSTAT5)", "assay": "IL-2-stimulated pSTAT5 in human PBMC (flow cytometry)", "settings": "CD4-positive cells", "method": "as §4, §5, §6"}},
  "data": [
    {"molecule": "CNC(=O)c1nnc(NC(=O)C2CC2)cc1Nc1cccc(-c2ncc(S(=N)(=O)C(C)C)cn2)c1OC", "note": "(single isomer, unassigned) [WX-011A]", "values": [
      {"measurement": "IC50", "setting": "[1]", "result": 23.1, "unit": "nM"},
      {"measurement": "IC50", "setting": "[2]", "result": 11200, "unit": "nM"},
      {"measurement": "IC50", "setting": "[3]", "result": 1660, "unit": "nM"},
      {"measurement": "IC50", "setting": "[4]", "result": 1310, "unit": "nM"}
    ]},
    {"molecule": "CNC(=O)c1nnc(NC(=O)C2CC2)cc1Nc1cccc(-c2ncc(S(=N)(=O)C(C)C)cn2)c1OC", "note": "(single isomer, unassigned) [WX-011B]", "values": [
      {"measurement": "IC50", "setting": "[3]", "result": 1350, "unit": "nM"},
      {"measurement": "IC50", "setting": "[4]", "result": 773, "unit": "nM"}
    ]},
    {"molecule": "CNC(=O)c1cnc(NC(=O)C2CC2)cc1Nc1cccc(-c2ccc(S(=O)(=O)C(C)C)cn2)c1OC.Cl", "note": "[Hydrochloride of WX-020]", "values": [
      {"measurement": "IC50", "setting": "[3]", "result": 1070, "unit": "nM"},
      {"measurement": "IC50", "setting": "[4]", "result": 1400, "unit": "nM"}
    ]},
    {"molecule": "CNC(=O)c1cnc(NC(=O)C2CC2)cc1Nc1cccc(-c2ncc(S(=O)(=O)C(C)C)cn2)c1OC", "note": "[WX-019]", "values": [
      {"measurement": "IC50", "setting": "[1]", "result": 29.7, "unit": "nM"},
      {"measurement": "IC50", "setting": "[2]", "result": 33800, "unit": "nM"},
      {"measurement": "IC50", "setting": "[3]", "result": 1440, "unit": "nM"},
      {"measurement": "IC50", "setting": "[4]", "result": 1580, "unit": "nM"}
    ]},
    {"molecule": "CNC(=O)c1cnc(NC(=O)C2CC2)cc1Nc1cccc(-c2ccc(S(=O)(=O)C(C)C)cn2)c1OC", "note": "[WX-020]", "values": [
      {"measurement": "IC50", "setting": "[1]", "result": 40.3, "unit": "nM"},
      {"measurement": "IC50", "setting": "[2]", "result": "> 100000", "unit": "nM"}
    ]},
    {"molecule": "CNC(=O)c1nnc(NC(=O)C2CC2)cc1Nc1cccc(-c2ccc(P(=O)(C3CC3)C3CC3)cn2)c1OC", "note": "[WX-021]", "values": [
      {"measurement": "IC50", "setting": "[3]", "result": 580, "unit": "nM"},
      {"measurement": "IC50", "setting": "[4]", "result": 540, "unit": "nM"}
    ]}
  ]
}
